Source: ChEMBL document CHEMBL5678818, “Discovery of potent SOS1 inhibitors that block RAS activation via disruption of the RAS-SOS1 interaction” (Proc Natl Acad Sci U S A, 2019)

Columns and labels:
[1] = target: Calcium/calmodulin-dependent protein kinase type 1 (Homo sapiens) (UniProt Q14012); test: Inhibition of CAMK1 (unknown origin) assessed as residual activity at 100 nM by KINOMEscan analysis relative to control
[2] = target: T1, Serine/threonine-protein kinase TAO3 (Homo sapiens) (UniProt Q9H2K8); test: Inhibition of TAOK3 (unknown origin) assessed as residual activity at 100 nM by KINOMEscan analysis relative to control
T1 sequence (whole entry): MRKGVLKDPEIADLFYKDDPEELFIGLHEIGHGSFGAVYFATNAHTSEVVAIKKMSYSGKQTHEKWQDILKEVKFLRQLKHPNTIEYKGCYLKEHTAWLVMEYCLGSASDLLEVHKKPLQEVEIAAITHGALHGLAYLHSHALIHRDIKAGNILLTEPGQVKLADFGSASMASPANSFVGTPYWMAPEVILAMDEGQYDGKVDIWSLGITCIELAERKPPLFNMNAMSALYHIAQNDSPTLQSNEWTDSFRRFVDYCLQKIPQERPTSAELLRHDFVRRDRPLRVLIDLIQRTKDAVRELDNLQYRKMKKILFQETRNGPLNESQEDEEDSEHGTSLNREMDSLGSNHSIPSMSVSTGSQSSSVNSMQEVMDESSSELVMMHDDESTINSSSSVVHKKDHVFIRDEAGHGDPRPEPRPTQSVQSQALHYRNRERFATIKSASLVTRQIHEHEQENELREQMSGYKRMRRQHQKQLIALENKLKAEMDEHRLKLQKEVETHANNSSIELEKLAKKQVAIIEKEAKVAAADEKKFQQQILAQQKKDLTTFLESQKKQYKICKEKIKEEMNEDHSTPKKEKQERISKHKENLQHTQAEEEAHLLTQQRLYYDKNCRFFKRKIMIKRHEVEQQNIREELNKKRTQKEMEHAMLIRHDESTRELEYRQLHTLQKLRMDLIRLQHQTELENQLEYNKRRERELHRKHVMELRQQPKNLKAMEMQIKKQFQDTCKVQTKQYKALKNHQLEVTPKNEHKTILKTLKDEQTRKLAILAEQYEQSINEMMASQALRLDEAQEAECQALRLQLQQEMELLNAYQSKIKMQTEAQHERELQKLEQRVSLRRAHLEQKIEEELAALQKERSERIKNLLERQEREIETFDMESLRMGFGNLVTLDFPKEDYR

[3] = target: T2, Protein kinase C iota type (Homo sapiens) (UniProt P41743); test: Inhibition of PRKCI (unknown origin) assessed as residual activity at 100 nM by KINOMEscan analysis relative to control
T2 sequence (whole entry): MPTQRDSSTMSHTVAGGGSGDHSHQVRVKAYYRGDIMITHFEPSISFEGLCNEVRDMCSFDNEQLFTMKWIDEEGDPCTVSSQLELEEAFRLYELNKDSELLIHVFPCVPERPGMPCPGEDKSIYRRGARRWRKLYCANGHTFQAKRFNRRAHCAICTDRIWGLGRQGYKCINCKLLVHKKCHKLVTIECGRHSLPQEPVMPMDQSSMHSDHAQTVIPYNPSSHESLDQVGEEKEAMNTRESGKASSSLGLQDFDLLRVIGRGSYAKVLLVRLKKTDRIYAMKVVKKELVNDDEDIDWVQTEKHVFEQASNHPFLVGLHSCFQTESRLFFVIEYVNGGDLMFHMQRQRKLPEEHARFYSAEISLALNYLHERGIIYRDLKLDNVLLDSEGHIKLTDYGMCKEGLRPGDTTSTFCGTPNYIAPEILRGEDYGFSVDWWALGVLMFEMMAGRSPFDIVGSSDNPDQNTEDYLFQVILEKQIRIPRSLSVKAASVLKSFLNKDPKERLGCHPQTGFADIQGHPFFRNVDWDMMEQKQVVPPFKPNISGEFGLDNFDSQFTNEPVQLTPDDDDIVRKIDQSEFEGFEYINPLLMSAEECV

[4] = target: Tyrosine-protein kinase Fes/Fps (Homo sapiens) (UniProt P07332); test: Inhibition of FES (unknown origin) assessed as residual activity at 100 nM by KINOMEscan analysis relative to control
[5] = target: cAMP-dependent protein kinase catalytic subunit beta (Homo sapiens) (UniProt P22694); test: Inhibition of PKAC-beta (unknown origin) assessed as residual activity at 100 nM by KINOMEscan analysis relative to control
[6] = target: T3, Phosphorylase b kinase gamma catalytic chain, liver/testis isoform (Homo sapiens) (UniProt P15735); test: Inhibition of PHKG2 (unknown origin) assessed as residual activity at 100 nM by KINOMEscan analysis relative to control
T3 sequence (whole entry): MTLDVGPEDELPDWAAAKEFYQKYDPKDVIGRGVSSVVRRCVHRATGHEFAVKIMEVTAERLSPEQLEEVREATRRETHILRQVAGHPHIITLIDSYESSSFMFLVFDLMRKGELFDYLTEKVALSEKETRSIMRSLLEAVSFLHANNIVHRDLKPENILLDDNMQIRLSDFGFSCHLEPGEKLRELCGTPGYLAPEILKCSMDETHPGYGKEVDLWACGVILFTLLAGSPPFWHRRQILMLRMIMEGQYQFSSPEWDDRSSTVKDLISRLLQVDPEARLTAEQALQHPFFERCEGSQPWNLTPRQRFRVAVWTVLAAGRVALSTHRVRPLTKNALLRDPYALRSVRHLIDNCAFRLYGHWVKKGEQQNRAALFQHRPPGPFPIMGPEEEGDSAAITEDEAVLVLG

[7] = target: Serine/threonine-protein kinase pim-3 (Homo sapiens) (UniProt Q86V86); test: Inhibition of PIM3 (unknown origin) assessed as residual activity at 100 nM by KINOMEscan analysis relative to control
[8] = target: Receptor tyrosine-protein kinase erbB-2 (Homo sapiens) (UniProt P04626); test: Inhibition of ERBB2 (unknown origin) assessed as residual activity at 100 nM by KINOMEscan analysis relative to control
Homo sapiens = species: Homo sapiens; test: Inhibition of N-terminal GST-tagged recombinant human SOS1 S876K mutant (564 to 1049 residues) expressed in Escherichia coli assessed as reduction in KRAS G12C mutant activation at 10 uM by HTRF analysis relative to control
[9] = target: Wee1-like protein kinase 2 (Homo sapiens) (UniProt P0C1S8); test: Inhibition of WEE2 (unknown origin) assessed as residual activity at 100 nM by KINOMEscan analysis relative to control
Sequence of Wee1-like protein kinase 2 (Homo sapiens) (P0C1S8 whole entry, looked up): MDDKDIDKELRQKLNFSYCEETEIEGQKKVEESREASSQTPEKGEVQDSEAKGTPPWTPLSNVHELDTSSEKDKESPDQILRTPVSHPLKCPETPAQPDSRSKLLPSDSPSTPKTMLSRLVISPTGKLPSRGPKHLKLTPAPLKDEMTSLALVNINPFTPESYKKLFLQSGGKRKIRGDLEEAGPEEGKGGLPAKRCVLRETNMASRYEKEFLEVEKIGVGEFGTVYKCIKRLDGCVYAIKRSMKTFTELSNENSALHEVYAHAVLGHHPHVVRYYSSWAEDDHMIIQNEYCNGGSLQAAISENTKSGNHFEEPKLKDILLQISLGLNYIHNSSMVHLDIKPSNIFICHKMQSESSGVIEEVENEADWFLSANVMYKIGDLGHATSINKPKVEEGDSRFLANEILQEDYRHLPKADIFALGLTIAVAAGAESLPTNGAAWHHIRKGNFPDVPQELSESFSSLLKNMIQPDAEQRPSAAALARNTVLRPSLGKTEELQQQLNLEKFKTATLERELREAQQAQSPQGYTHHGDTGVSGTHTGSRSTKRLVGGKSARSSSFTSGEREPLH

Sequence of Calcium/calmodulin-dependent protein kinase type 1 (Homo sapiens) (Q14012 whole entry, looked up): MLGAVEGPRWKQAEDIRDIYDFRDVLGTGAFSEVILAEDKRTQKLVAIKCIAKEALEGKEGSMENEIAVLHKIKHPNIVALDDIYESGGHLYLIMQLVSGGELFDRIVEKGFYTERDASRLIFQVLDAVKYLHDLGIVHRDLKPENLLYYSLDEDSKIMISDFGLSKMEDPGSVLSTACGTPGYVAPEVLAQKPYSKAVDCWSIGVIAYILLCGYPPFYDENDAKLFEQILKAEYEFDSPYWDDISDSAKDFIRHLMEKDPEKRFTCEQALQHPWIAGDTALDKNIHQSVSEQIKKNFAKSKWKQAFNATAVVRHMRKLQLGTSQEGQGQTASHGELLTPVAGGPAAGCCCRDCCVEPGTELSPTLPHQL
Sequence of Tyrosine-protein kinase Fes/Fps (Homo sapiens) (P07332 whole entry): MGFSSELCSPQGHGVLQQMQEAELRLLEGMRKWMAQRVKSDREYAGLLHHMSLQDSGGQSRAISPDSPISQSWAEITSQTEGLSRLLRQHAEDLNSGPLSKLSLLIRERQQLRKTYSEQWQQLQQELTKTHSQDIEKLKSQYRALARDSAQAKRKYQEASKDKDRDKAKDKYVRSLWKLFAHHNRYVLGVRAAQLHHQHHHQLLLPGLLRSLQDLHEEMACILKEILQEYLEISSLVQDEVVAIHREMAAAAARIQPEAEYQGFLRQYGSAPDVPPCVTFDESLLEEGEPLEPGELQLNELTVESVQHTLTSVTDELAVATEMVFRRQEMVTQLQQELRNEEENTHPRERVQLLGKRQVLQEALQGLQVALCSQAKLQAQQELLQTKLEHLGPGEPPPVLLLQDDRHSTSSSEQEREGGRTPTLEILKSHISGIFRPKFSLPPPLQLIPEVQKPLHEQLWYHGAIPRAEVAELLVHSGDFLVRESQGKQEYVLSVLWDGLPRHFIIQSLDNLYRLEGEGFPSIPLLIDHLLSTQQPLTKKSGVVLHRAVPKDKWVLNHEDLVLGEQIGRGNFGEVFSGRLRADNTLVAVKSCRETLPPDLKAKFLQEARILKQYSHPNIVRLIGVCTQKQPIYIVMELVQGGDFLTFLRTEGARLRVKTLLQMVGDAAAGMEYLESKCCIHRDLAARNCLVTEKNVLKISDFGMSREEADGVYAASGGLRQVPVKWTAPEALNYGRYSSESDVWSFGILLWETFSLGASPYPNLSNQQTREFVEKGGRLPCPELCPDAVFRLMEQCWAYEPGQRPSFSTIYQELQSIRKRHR
Sequence of Receptor tyrosine-protein kinase erbB-2 (Homo sapiens) (P04626 whole entry, the tested form may be a part): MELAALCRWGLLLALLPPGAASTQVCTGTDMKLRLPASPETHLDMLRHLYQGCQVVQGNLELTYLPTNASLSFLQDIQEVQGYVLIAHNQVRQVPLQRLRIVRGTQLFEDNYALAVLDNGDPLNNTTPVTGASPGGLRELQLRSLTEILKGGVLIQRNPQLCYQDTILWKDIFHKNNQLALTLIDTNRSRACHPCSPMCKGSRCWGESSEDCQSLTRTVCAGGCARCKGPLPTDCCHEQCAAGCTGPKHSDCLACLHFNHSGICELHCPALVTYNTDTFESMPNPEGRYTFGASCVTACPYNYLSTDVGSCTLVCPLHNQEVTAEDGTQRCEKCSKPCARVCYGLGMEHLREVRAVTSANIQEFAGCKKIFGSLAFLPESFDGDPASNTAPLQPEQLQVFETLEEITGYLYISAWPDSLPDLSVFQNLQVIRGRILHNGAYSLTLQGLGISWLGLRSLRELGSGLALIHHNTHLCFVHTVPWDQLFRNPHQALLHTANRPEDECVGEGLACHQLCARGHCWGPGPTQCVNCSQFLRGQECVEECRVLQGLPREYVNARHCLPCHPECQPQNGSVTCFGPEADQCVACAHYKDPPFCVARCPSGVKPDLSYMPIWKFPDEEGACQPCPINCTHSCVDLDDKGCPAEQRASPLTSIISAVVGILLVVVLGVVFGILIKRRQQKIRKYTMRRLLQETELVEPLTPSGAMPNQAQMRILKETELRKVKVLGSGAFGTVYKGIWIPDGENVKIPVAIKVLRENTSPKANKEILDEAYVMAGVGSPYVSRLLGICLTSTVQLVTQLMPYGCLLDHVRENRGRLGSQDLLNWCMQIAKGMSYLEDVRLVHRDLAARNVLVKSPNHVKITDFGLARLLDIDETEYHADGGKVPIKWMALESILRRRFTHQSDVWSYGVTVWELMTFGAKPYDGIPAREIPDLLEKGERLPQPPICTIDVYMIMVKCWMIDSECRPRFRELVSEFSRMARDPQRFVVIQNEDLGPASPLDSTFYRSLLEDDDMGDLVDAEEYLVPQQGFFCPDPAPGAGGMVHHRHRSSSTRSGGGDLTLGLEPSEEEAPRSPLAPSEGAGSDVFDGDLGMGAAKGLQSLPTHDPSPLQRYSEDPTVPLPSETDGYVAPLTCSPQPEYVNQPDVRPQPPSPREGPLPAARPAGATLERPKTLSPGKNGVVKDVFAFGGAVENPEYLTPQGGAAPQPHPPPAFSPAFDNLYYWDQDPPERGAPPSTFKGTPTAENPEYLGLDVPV

Structure (SMILES): COc1cc2ncnc(N[C@H](C)c3cccc4ccccc34)c2cc1OC
- Activity [1]: 100%
- Activity [2]: 82%
- Activity [3]: 84%
- Activity [4]: 78%
- Activity [5]: 88%
- Activity [6]: 100%
- Activity [7]: 87%
- Activity [8]: 84%
- inhibition (Homo sapiens): 102%
- Activity [9]: 100%
